Tests used:
Mus musculus [1] = experiment: Percentage change in the body weight on day 20 after intravenous administration (10 mg/kg) against B16 melanoma (implanted subcutaneously in mice).; type: functional
[2] = Toxicity expressed in terms of number of toxic deaths after administration (10 mg/Kg) in mice; out of 10 tested; conditions: mouse, in vivo
Mus musculus [3] = experiment: Tumor inhibition expressed as (average tumor weight of treated group/average tumor weight of control group)*100 at a dose of (8 mg/kg); type: functional
PG-49 cell line [4] = experiment: Cytotoxicity expressed as concentration required to inhibit cell growth by 50% on continuous exposure time of 72 hr in PG-49 cell line by MTT assay.; type: functional, cell-based; conditions: Homo sapiens, PG-49, 72 h
Mus musculus [5] = experiment: Percentage change in the body weight on day 20 after intravenous administration (8 mg/Kg) against human breast cancer xenograph Bcap-37 (grown sc in athymic mice); type: functional
L1210 [6] = experiment: Cytotoxicity expressed as concentration required to inhibit cell growth by 50% on continuous exposure time of 96h in L1210 cell line by MTT assay.; type: functional, cell-based; conditions: Mus musculus, L1210, 96 h
[7] = Toxicity expressed in terms of number of toxic deaths after administration (8 mg/Kg) in athymic mice; out of 6 tested; conditions: mouse, in vivo
PG-49 cell line [8] = experiment: Cytotoxicity expressed as concentration required to inhibit cell growth by 50% on continuous exposure time of 96h in PG-49 cell line by MTT assay.; type: functional, cell-based; conditions: Homo sapiens, PG-49, 96 h
Mus musculus [9] = experiment: Tumor inhibition expressed as (average tumor weight of treated group/average tumor weight of control group)*100 at a dose of 10 mg/kg; type: functional
L1210 [10] = experiment: Cytotoxicity expressed as concentration required to inhibit cell growth by 50% on continuous exposure time of 72 hr in L1210 cell line by MTT assay.; type: functional, cell-based; conditions: Mus musculus, L1210, 72 h

CC(=O)O[C@H]1C(=O)[C@@]2(C)[C@H]([C@H](OC(=O)c3ccccc3)[C@]3(O)C[C@H](OC(=O)[C@H](O)[C@@H](NC(=O)c4ccccc4)c4ccccc4)C(C)=C1C3(C)C)[C@]1(OC(C)=O)CO[C@@H]1C[C@@H]2O [PACLITAXEL]
Body weight change (Mus musculus [1]): 7.8% | Toxicity [2]: 2 | Tumor inhibition (Mus musculus [3]): 78.02% | IC50 (PG-49 cell line [4]): 2140 pM | Body weight change (Mus musculus [5]): 16.9% | IC50 (L1210 [6]): 90 pM | Toxicity [7]: 0 | IC50 (PG-49 cell line [8]): 310 pM | Tumor inhibition (Mus musculus [9]): 71.4% | IC50 (L1210 [10]): 580 pM
